For 40 compounds, IC50 and inhibition results are on record in ChEMBL document CHEMBL4706690, “Identification of BR102910 as a selective fibroblast activation protein (FAP) inhibitor” (Bioorg Med Chem Lett, 2021).

In test [1] the target is T1, Prolyl endopeptidase FAP (Homo sapiens, UniProt Q12884).
T1 sequence (Q12884 whole entry): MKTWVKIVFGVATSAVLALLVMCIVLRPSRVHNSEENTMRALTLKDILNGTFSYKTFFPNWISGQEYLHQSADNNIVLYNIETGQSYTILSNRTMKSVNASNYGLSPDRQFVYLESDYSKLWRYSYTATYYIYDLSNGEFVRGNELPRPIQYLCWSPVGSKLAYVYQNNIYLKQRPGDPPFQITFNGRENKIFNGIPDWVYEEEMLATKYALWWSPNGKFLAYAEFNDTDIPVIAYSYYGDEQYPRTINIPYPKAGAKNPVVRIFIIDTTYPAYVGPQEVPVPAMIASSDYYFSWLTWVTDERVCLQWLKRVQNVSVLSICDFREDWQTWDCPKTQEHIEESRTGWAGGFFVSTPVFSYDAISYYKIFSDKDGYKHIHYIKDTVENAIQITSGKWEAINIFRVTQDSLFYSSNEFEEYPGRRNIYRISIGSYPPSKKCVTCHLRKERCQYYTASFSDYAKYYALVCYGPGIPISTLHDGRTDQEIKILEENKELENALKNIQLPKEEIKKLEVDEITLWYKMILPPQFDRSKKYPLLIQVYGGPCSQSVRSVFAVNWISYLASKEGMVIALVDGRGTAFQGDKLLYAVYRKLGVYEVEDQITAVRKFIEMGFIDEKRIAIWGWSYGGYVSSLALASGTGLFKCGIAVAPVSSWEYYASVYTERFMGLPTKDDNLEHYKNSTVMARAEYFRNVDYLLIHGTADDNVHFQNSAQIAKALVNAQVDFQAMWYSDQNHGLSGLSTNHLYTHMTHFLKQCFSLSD
As to the kind of experiment: Inhibition of FAP (unknown origin) using AMC substrate by fluorometric assay.

For test [2], the target named is Dipeptidyl peptidase 4 (Homo sapiens, UniProt P27487). As to the kind of experiment: Inhibition of DPP4 (unknown origin) using AMC substrate by fluorometric assay.
In test [3] the target is T2, Prolyl endopeptidase (Homo sapiens, UniProt P48147).
T2 sequence (P48147 whole entry): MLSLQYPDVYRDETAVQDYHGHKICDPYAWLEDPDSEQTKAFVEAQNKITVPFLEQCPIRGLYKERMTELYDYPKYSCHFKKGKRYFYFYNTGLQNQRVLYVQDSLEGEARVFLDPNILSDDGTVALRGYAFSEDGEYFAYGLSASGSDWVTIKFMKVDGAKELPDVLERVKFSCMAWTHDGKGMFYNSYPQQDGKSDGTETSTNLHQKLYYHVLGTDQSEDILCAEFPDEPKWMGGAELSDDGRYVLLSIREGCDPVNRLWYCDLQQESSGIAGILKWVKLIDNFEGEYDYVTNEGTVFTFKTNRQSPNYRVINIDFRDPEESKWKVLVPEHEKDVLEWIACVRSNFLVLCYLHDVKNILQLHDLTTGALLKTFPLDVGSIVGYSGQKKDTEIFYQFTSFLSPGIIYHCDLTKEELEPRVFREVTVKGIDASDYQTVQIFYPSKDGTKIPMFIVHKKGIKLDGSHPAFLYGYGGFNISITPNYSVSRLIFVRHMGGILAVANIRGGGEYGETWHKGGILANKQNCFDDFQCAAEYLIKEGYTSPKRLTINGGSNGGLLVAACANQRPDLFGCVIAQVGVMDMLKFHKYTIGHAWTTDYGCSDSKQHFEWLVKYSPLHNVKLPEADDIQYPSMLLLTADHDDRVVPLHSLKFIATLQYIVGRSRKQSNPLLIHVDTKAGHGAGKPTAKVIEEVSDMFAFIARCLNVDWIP
Description: Inhibition of PREP (unknown origin) using AMC substrate by fluorometric assay

Test [4] concerns the target Prolyl endopeptidase FAP (Homo sapiens) (UniProt Q12884). Kind of test: Inhibition of FAP (unknown origin) at 1 uM TR-FRET assay relative to control. In general terms: In TR-FRET formats the signal depends on donor and acceptor labels being close together.

Chain of Dipeptidyl peptidase 4 (P27487 whole entry): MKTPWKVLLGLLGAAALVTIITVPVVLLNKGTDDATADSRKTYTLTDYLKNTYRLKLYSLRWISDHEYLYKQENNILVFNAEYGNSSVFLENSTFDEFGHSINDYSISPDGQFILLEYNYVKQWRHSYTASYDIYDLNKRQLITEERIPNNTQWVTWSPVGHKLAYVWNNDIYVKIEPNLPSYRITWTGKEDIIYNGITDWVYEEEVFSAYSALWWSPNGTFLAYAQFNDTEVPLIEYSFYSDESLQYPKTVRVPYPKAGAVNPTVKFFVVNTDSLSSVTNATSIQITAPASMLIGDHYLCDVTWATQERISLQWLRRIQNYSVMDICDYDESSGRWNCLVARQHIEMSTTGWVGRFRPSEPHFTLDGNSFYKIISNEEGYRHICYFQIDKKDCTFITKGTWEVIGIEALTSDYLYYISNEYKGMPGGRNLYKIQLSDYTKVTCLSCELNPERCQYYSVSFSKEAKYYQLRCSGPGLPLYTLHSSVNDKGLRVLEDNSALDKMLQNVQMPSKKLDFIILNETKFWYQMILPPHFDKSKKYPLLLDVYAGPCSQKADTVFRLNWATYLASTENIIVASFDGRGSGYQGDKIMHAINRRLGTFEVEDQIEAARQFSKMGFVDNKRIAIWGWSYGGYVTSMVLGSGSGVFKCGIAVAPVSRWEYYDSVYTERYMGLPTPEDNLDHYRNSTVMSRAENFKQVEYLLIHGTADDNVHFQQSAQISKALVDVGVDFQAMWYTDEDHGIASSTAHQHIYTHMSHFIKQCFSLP

A word on the IC50: it is the point on the concentration scale where inhibition reaches its midpoint. Low readings indicate inhibition by little substance, high ones a need for much substance. `N#C[C@@H]1CC(F)(F)CN1C(=O)CNC(=O)c1csc(CSc2ccc(Cl)c(Cl)c2)n1`: the IC50 is 119 nM in test [1] and above 100000 nM in test [2].
Consider `N#Cc1ccc(SCc2nc(C(=O)NCC(=O)N3CC(F)(F)C[C@H]3C#N)cs2)cc1`, for which the values for the IC50 in test [3], in test [1] and in test [2] were 138 nM, 24 nM and 44600 nM, respectively.
A word on the inhibition: it is the relative decrease from the control value, in per cent. Lower therefore signals a response near the control. Consider `N#C[C@@H]1CC(F)(F)CN1C(=O)CNC(=O)c1csc(Cc2ccc(OC(F)(F)F)cc2)n1`, for which the results for the IC50 in test [1] and in test [2] were 22 nM and above 100000 nM, respectively. For the same compound, the inhibition in test [4] was 86.3%.
The matching figures for `N#C[C@@H]1CC(F)(F)CN1C(=O)CNC(=O)c1csc(Cc2ccc(-n3cncn3)cc2)n1`: 28 nM, 18700 nM and 98.3%.
`N#C[C@@H]1CC(F)(F)CN1C(=O)CNC(=O)c1cccc(-c2ccc(Cl)cc2)n1` had a concentration for half-maximal inhibition (IC50) in test [1] of 100 nM. In test [4], this compound displayed an inhibition of 80.6%.
`N#C[C@@H]1CC(F)(F)CN1C(=O)CNC(=O)c1csc(CS(=O)(=O)c2ccc(Cl)c(Cl)c2)n1`: the IC50 in test [1] was 19 nM; in test [2] it was above 100000 nM.
In the case of `N#Cc1ccc(OCc2nc(C(=O)NCC(=O)N3CC(F)(F)C[C@H]3C#N)cs2)cc1`, the IC50 in test [1] is 7 nM; in test [2], above 100000 nM.
In the case of `COc1ccc(-c2nc(C(=O)NCC(=O)N3CC(F)(F)C[C@H]3C#N)cs2)cc1`, the 50% inhibitory concentration (IC50) in test [3] came out at 1180 nM; in test [1] it was 214 nM. The compound further had an inhibition in test [4] of 76.5%.
On to `N#C[C@@H]1CC(F)(F)CN1C(=O)CNC(=O)c1csc(Cc2ccccc2Br)n1`, for which the values for the IC50 in test [1] and in test [2] were 50 nM and 200 nM, respectively. This compound also came in with an inhibition in test [4] of 93.7%.
On the same counts, the results for `N#C[C@@H]1CC(F)(F)CN1C(=O)CNC(=O)c1csc(Cc2ccc(F)c(F)c2)n1` are 47 nM, above 100000 nM and 95.4%.
The matching figures for `N#C[C@@H]1CC(F)(F)CN1C(=O)CNC(=O)c1csc(Cc2cc(Cl)ccc2Cl)n1`: 55 nM, above 100000 nM and 94.5%.
Take `N#Cc1ccc(S(=O)(=O)Cc2nc(C(=O)NCC(=O)N3CC(F)(F)C[C@H]3C#N)cs2)cc1`: the half-inhibitory concentration (IC50) came to 9 nM in test [1] and 76800 nM in test [2].
On to `N#C[C@@H]1CC(F)(F)CN1C(=O)CNC(=O)c1coc(-c2ccc(Cl)cc2)n1`, for which the IC50 worked out at 4000 nM in test [3] and 93 nM in test [1]. In test [4], this compound came in with an inhibition of 88.7%.
As for `N#C[C@@H]1CC(F)(F)CN1C(=O)CNC(=O)c1cnc(-c2ccc(Cl)cc2)cn1`, in test [1], 795 nM corresponded to half-maximal inhibition (IC50). For the same compound, the inhibition in test [4] is 64%.
For `N#C[C@@H]1CC(F)(F)CN1C(=O)CNC(=O)c1csc(Cc2cccc(Br)c2)n1`, the values for the half-inhibitory concentration (IC50) in test [1] and in test [2] were 35 nM and 52000 nM, respectively. In addition, in test [4], the inhibition worked out at 97.5%.
`N#C[C@@H]1CC(F)(F)CN1C(=O)CNC(=O)c1csc(Cc2ccc(-n3cccn3)cc2)n1`: the IC50 is 23 nM in test [1] and above 100000 nM in test [2]. This compound also came in with an inhibition in test [4] of 98.8%.
On the same counts, the results for `CSc1ccc(Cc2nc(C(=O)NCC(=O)N3CC(F)(F)C[C@H]3C#N)cs2)cc1` are 25 nM, above 100000 nM and 99%.
On the same counts, the results for `N#C[C@@H]1CC(F)(F)CN1C(=O)CNC(=O)c1csc(Cc2ccc(Cl)cc2)n1` are 21 nM, above 100000 nM and 98.6%.
`Cc1ccc(S(=O)(=O)Cc2nc(C(=O)NCC(=O)N3CC(F)(F)C[C@H]3C#N)cs2)cc1`: the results for the IC50 in test [1] and in test [2] were 20 nM and above 100000 nM, respectively.
In turn, `Cn1cc(C(=O)NCC(=O)N2CC(F)(F)C[C@H]2C#N)cc1-c1ccc(Cl)cc1` registered a 50% inhibitory concentration (IC50) in test [1] of 104 nM. The inhibition in test [4] came to 85.3%.
`N#C[C@@H]1CC(F)(F)CN1C(=O)CNC(=O)c1csc(Cc2ccc(-c3ccc(Cl)cc3)cc2)n1`: the IC50 in test [1] is 145 nM; in test [2], above 100000 nM. In test [4], this compound came in with an inhibition of 93.8%.
The matching figures for `Cc1ccc(Cc2nc(C(=O)NCC(=O)N3CC(F)(F)C[C@H]3C#N)cs2)cc1`: 37 nM, 68800 nM and 97.8%.
On the same counts, the results for `N#C[C@@H]1CC(F)(F)CN1C(=O)CNC(=O)c1csc(Cc2ccccc2I)n1` are 78 nM, above 100000 nM and 90.6%.
As to `N#C[C@@H]1CC(F)(F)CN1C(=O)CNC(=O)c1csc(-c2ccc(-c3ccccc3)cc2)n1`, the values for the 50% inhibitory concentration (IC50) in test [3] and in test [1] were 10000 nM and 414 nM, respectively. The inhibition in test [4] was determined as 84.8%.
For `N#C[C@@H]1CC(F)(F)CN1C(=O)CNC(=O)c1csc(-c2ccc(Cl)cc2C(F)(F)F)n1`, the figures for the concentration for half-maximal inhibition (IC50) in test [1] and in test [2] were 60 nM and above 100000 nM, respectively. This compound also had an inhibition in test [4] of 94.6%.
In the case of `N#C[C@@H]1CC(F)(F)CN1C(=O)CNC(=O)c1csc(-c2ccc(F)cc2)n1`, the concentration for half-maximal inhibition (IC50) in test [3] was found to be 1600 nM; in test [1], 87 nM. Also, the inhibition in test [4] is 90.5%.
As to `N#C[C@@H]1CC(F)(F)CN1C(=O)CNC(=O)c1csc(COc2ccc(Cl)c(Cl)c2)n1`, the results for the IC50 in test [1] and in test [2] were 35 nM and above 100000 nM, respectively.
Regarding `N#C[C@@H]1CC(F)(F)CN1C(=O)CNC(=O)c1c[nH]c(-c2ccc(Cl)cc2)c1`, the IC50 worked out at 3620 nM in test [3] and 550 nM in test [1]. In test [4], this compound had an inhibition of 57.8%.
With `N#C[C@@H]1CC(F)(F)CN1C(=O)CNC(=O)c1csc(CSc2ccc(C(F)(F)F)cc2)n1`, the 50% inhibitory concentration (IC50) in test [1] is 11 nM; in test [2], above 100000 nM.
With `CS(=O)(=O)c1ccc(Cc2nc(C(=O)NCC(=O)N3CC(F)(F)C[C@H]3C#N)cs2)cc1`, the IC50 worked out at 20 nM in test [1] and 10100 nM in test [2]. The inhibition in test [4] turned out to be 98%.
Consider `COc1ccc(Cc2nc(C(=O)NCC(=O)N3CC(F)(F)C[C@H]3C#N)cs2)cc1`, for which the IC50 was 26 nM in test [1] and above 100000 nM in test [2]. Also, in test [4], the inhibition came out at 98%.
The matching figures for `N#C[C@@H]1CC(F)(F)CN1C(=O)CNC(=O)c1csc(Cc2ccccc2-c2ccc3ccccc3c2)n1`: 4 nM, above 100000 nM and 99.3%.
As for `N#C[C@@H]1CC(F)(F)CN1C(=O)CNC(=O)c1csc(Cc2ccc(Cl)cc2Cl)n1`, the IC50 in test [1] was 1 nM; in test [2] it was above 100000 nM. The compound further gave an inhibition in test [4] of 97.2%.
With `Cc1ccc(SCc2nc(C(=O)NCC(=O)N3CC(F)(F)C[C@H]3C#N)cs2)cc1`, the half-maximal inhibitory concentration (IC50) is 5 nM in test [1] and above 100000 nM in test [2].
For the compound `N#C[C@@H]1CC(F)(F)CN1C(=O)CNC(=O)c1csc(-c2ccc(Cl)cc2)n1`, half-maximal inhibition in test [1] (IC50) was put at 148 nM. In test [4], this compound gave an inhibition of 86.7%.
With `N#C[C@@H]1CC(F)(F)CN1C(=O)CNC(=O)c1csc(Cc2ccc(Br)cc2)n1`, the results for the IC50 in test [1] and in test [2] were 16 nM and above 100000 nM, respectively. In addition, the inhibition in test [4] was found to be 100%.
For `N#C[C@@H]1CC(F)(F)CN1C(=O)CNC(=O)c1csc(-c2ccc3occc3c2)n1`, the IC50 in test [3] came to 10000 nM; in test [1] it was 446 nM. Also, in test [4], the inhibition amounted to 83.4%.
`N#C[C@@H]1CC(F)(F)CN1C(=O)CNC(=O)c1csc(CS(=O)(=O)c2ccc(C(F)(F)F)cc2)n1`: the results for the IC50 in test [1] and in test [2] were 5 nM and above 100000 nM, respectively.
Regarding `N#C[C@@H]1CC(F)(F)CN1C(=O)CNC(=O)c1csc(Cc2ccc(F)cc2Cl)n1`, the IC50 in test [1] was 60 nM; in test [2], above 100000 nM. This compound showed an inhibition in test [4] of 95.9%.
In the case of `N#Cc1ccc(-c2ccc(Cc3nc(C(=O)NCC(=O)N4CC(F)(F)C[C@H]4C#N)cs3)cc2)cc1`, the IC50 in test [1] is 12 nM; in test [2], above 100000 nM. In test [4], this compound yielded an inhibition of 98.7%.
